Laboratory results published in patent US9845285B2, “Crystalline solid and amorphous forms of (−)-halofenate and methods related thereto” (CymaBay Therapeutics, Inc., priority 2005, dated 2017).
Where two headings read alike, the source gives them in different places.

Assays:
cytochrome P450 2C9 = cytochrome P450 2C9 (Homo sapiens, UniProt P11712); conditions: cited from earlier work
physchem = conditions: for solubility: thermodynamic from solid
Method: Solubility studies were done on Form A in water and a variety of organic solvents. […] Solubility was also determined in these solvents at approximately 50° C.

[1] = Thermal analysis (DSC/TGA), decomposition; type: physicochemical
Method: Differential scanning calorimetry (DSC) was performed using a TA Instruments 2920 differential scanning calorimeter. The sample was placed into an aluminum DSC pan and the weight accurately recorded. The pan was covered with a lid and then crimped. The sample cell was equilibrated at 25° C. and heated under a nitrogen purge at a rate of 10° C./min, up to a final temperature of 350° C. Indium metal was used as the calibration standard. Reported temperatures are at the transition maxima.
Thermographic analyses (TGA) was performed using a TA Instruments 2920 thermographic analyzer. The sample was placed into an aluminum sample pan and inserted into a TGA furnace. The sample was first equilibrated at 25° C., then heated under a nitrogen at a rate of 10° C./min, up to a final temperature of 350° C. Nickel and ALUMEL™ were used as calibration standards.

[2] = Slurry interconversion studies in cyclohexane; type: physicochemical; conditions: for form resulting from slurry: cyclohexane, ambient temperature, 50° C. and 5° C.
Method: Samples of mixed forms by XRPD and pure forms were used for interconversion studies (see FIG. 37).
A saturated solution was prepared by vortexing and sonicating ca. 4 mg (−)-halofenate Form A in approximately 5-6 mL cyclohexane. This solution was filtered into a sample containing a mixture of ca. 40 mg Form A/Form D. The mixture was slurred on a rotating wheel at ambient temperature for approximately 6 days. The solids were recovered by vacuum filtration and vacuum dried at ambient temperature. The dry solids were analyzed by polarized light microscopy and XRPD.
The experiment was repeated using a shaker block at ca 50° C. using 2 mL of cyclohexane and slurried for ca. 3 days. and the supernatant was removed through decantation. Both the ambient and 50° C. experiments were repeated using pure forms A and E (ca. 20 mg of each form). The ambient experiment was also repeated with A, B, D, and E (ca. 10 mg of each form, slurred approximately 7 days) on a rotating wheel and on a magnetic stir plate in the refrigerator (ca 5° C.). When conversion was not deemed complete by XRPD solids were re-slurried in cyclohexane.
Interconversion studies were carried out in cyclohexane at ambient temperature 50° C. and 5° C. (see FIG. 37). The solvent was chosen because of the high solubility of the various forms in common organic solvents. Forms A, B, D and E were used as starting materials.

[3] = Solid form stability on drying, slurrying and storage; type: physicochemical; conditions: for conversion to other solid forms: upon drying, slurrying or over time
[4] = Automated moisture sorption/desorption; type: physicochemical; conditions: for solid form after moisture sorption/desorption: XRPD after desorption
Method: Moisture sorption/desorption data were collected on a VTI-SGA-100 Vapor Sorption Analyzer. Sorption and desorption data were collected over a range of 5% to 95% relative humidity (RH) at 10% RH intervals under a nitrogen purge. Samples were not dried prior to analysis. Equilibrium criteria used for analysis were less than 0.0100% weight change in 5 minutes with a maximum equilibration time of 3 hours if the weight criterion was not met. Data were not corrected for the initial moisture content of the samples. Sodium chloride and polyvinylpyrolidone were used as calibration standards. A sample was taken after desorption was complete and analyzed by powder X-ray diffraction for potential form change.

[5] = cited from earlier work

cytochrome P450 2C9, sequence (P11712 whole entry): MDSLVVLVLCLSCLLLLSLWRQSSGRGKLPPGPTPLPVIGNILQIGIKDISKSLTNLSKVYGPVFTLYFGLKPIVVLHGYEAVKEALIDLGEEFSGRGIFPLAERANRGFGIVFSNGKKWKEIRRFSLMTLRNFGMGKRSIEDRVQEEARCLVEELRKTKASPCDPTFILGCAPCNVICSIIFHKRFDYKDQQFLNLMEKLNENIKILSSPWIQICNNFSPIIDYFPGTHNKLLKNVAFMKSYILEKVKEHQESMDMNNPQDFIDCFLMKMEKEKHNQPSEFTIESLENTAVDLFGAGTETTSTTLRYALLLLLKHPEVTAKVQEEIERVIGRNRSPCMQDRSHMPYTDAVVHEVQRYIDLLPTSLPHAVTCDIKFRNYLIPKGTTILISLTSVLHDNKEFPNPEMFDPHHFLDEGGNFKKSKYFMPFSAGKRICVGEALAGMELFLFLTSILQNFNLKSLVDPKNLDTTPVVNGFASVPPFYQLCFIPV

Row | Compound | decomposition onset [1] | form resulting from slurry [2] | conversion to other solid forms [3] | hygroscopicity [4] | solid form after moisture sorption/desorption [4] | further results
1 | O=C(O)C(Oc1cccc(C(F)(F)F)c1)c1ccc(Cl)cc1 (racemic) [halofenic acid, 4-Chlorophenyl-(3-trifluoromethylphenoxy)-acetic acid] |  |  |  |  |  | inhibition of cytochrome P450 2C9 (cytochrome P450 2C9): inhibited
2 | CC(=O)NCCOC(=O)C(Oc1cccc(C(F)(F)F)c1)c1ccc(Cl)cc1 (single isomer, unassigned; (-)) [(−)-halofenate, (−)-2-acetamidoethyl 4-chlorophenyl-(3-trifluoromethylphenoxy)-acetate] |  |  |  |  |  | solubility (physchem; organic solvent or mixture): > 300 mg/mL; solubility (physchem; water): < 1 mg/mL
3 | CC(=O)NCCOC(=O)C(Oc1cccc(C(F)(F)F)c1)c1ccc(Cl)cc1 (stereo not shown) [Form D] | approximately 225 °C | resulted in Form A | could be converted to Form A upon slurring | non-hygroscopicity | remained Form D | weight gain ([4]; at 95% RH): less than 0.1%
4 | CC(=O)NCCOC(=O)C(Oc1cccc(C(F)(F)F)c1)c1ccc(Cl)cc1 (racemic) [racemic halofenate, 2-acetamidoethyl 4-chlorophenyl-(3-trifluoromethylphenoxy)-acetate] |  |  |  |  |  | side effects ([5]; Friedberg et al., Clin. Res. 1986): gastrointestinal bleeding from stomach and peptic ulcers; drug-drug interactions ([5]; with agents such as warfarin sulfate (COUMADIN), Vesell and Passantanti 1972): some indications of drug-drug interactions
5 | CC(=O)NCCOC(=O)C(Oc1cccc(C(F)(F)F)c1)c1ccc(Cl)cc1 (stereo not shown) [Form A] | approximately 200 °C | resulted in Form A |  | non-hygroscopic | essentially unchanged | relative solubility in crystallization solvents (physchem; some crystallization solvents): lower solubility; relative stability of crystal form ([2]; from slurry interconversion in cyclohexane): most stable crystal form; relative thermodynamic stability of crystalline solid form [3]: most thermodynamically stable; relative thermodynamic stability of crystalline solid form ([3]; listed as form A): most stable crystalline solid form; storage stability ([3]; long periods (months)): could be stored for long periods (months) without decomposition; weight gain ([4]; at 65% relative humidity (RH)): no weight gain; weight gain ([4]; at 65-95% RH): 1.6%; loss of weight gain in desorption study ([4]; desorption at 5% RH): All of the weight gain was lost
6 | O=C(O)C(Oc1cccc(C(F)(F)F)c1)c1ccc(Cl)cc1 (single isomer, unassigned; (-)) [(−)-enantiomer of halofenic acid] |  |  |  |  |  | ability to inhibit cytochrome P450 2C9 compared to the (+)-enantiomer (less active) (cytochrome P450 2C9; versus (+)-enantiomer of halofenic acid, U.S. Pat. No. 6,262,118): about twenty-fold
7 | CC(=O)NCCOC(=O)C(Oc1cccc(C(F)(F)F)c1)c1ccc(Cl)cc1 (stereo not shown) [Form C] |  |  | could be converted to other forms upon drying or slurrying |  |  | conversion to other solid forms ([3]; listed as form C): over time conversion to crystal form E (below) occurred
8 | CC(=O)NCCOC(=O)C(Oc1cccc(C(F)(F)F)c1)c1ccc(Cl)cc1 (stereo not shown) [Form B] |  | resulted in Form A | could be converted to other solid forms upon drying or slurrying |  |  | 
9 | CC(=O)NCCOC(=O)C(Oc1cccc(C(F)(F)F)c1)c1ccc(Cl)cc1 (stereo not shown) [Form E] | approximately 225 °C | resulted in Form A | could be converted to Form A upon slurring | non-hygroscopicity | remained Form E | weight gain ([4]; at 95% RH): less than 0.2%
